# Data from patent publication US7192931B2, “Treatment of demyelinating diseases” (Neuren Pharmaceuticals Ltd., priority 2000, dated 2007).
# Key:
# [1] = test system: C57Bl/6 mice with MOG35-55 peptide-induced EAE; assay: Expanded disability status scale for EAE treated mice; assay type: in vivo, mouse; details: for Maximal disability score: Alertness / Maximal disability score: Bladder function / Maximal disability score: Eye movements / Maximal disability score: Motor (grip)* / Maximal disability score: Other signs (shine hairs and loose skin) / Maximal disability score: Sensory* Light touch / Maximal disability score: Sensory* Pain / Maximal disability score: Spontaneous mobility / Maximal disability score: Tone* / Maximal disability score: Tremor / Maximal disability score: Vision (including pupillary reflex) / Total expanded disability scale: mean values
# Protocol: (§1) C57Bl/6 mice (8–10 week old) were injected subcutaneously in one flank with 300 μg of MOG35-55 peptide ([…]: SEQ ID NO:1) synthesized by Mimotapes Pty Ltd, Clayton, Australia and emulsified in CFA containing 500 μg of Mycobacterium tuberculosis H37Ra (DIFCO Laboratories, Detrit, USA). They also received 500 ng of pertussis toxin (List Biological Laboratories, CA, USA) in 200 μl PBS intravenously via the tail vein, followed 48 hours later by a second dose. A second injection of MOG peptide was given in the absence of pertussis toxin one week later in the opposite flank, as described previously (Kanwar et al., 2000b).
# (§2) Two treatment protocols were employed, involving the treatment of early disease, versus advanced disease. For early disease, reagents were administered at day 35 (following MOG injection). Antibody was administered thrice on alternate days, whereas neuroprotectors were given daily for 6 days, where 50% of reagent was given ip and 50% iv. In the treatment of advanced disease, therapy as above was initiated at day 60, with either three or eight anti-MAdCAM-1 mAb injections, and neuroprotectors given daily for either 7 or 18 days.
# The mice were monitored daily and scored according to the following scale: 0, no clinical signs of EAE; 1, limp tail; 2, partial hind limb paralysis; 3, complete hind limb paralysis; 4, complete hind limb and partial fore limb paralysis; 5, paralysis extending to diaphragm; 6, hind and fore limb paralysis; 7, death due to EAE. Paralysis extending to the diaphragm was denoted as difficulty in remaining upright. […] The daily mean clinical score for each group is the mean disease score of at least five mice. The body weight of animals was measured regularly throughout the experiments. The expanded disability status scale for EAE treated mice was scored using an earlier published scoring system (Villoslada et al. 2000).
# [2] = test system: C57Bl/6 mice with MOG35-55 peptide-induced EAE; assay: Neuropathology scoring of spinal cord sections (pathology status scale); assay type: in vivo, mouse; details: for Pathology status scale: Oligodendrocytes** / Pathology status scale: Remyelination**: reverse scores; for Pathology status scale: Axonal damage / Pathology status scale: Demyelination / Pathology status scale: Inflammation: scored 0 to 5
# Protocol: as §1, §2
# Mice were perfused through the left cardiac ventricle with ice-cold PBS or glutaraldehyde, and the CNS including brain and spinal cord were prepared for frozen or epoxy sections, respectively. Thin slices were taken at all levels of the CNS including spinal cord (cervical, midthoracic, T11, T12/13, upper lumbar, L6, L7 and sacral) and sacral roots. One-μm thick epoxy sections taken from different levels of the spinal cord were stained with toluidine blue, and examined by light microscopy by an investigator blinded to the sample identity. Multiple sections from the spinal cord were scored from 0 to 5 for inflammation, demyelination, remyelination, and axonal necrosis or damage, using a previously published scoring system (Moore et al., 2000).
smiles,measurement,setting,value
"NS(=O)(=O)c1cccc2c1c([N+](=O)[O-])cc1nc(O)c(O)nc12 [NBQX, 2,3-dihydroxy-6-nitro-7-sulfamoylbenzo(f)quinoxaline]",total scores (disability scale),"[1]; at day 70 as printed, 35 for rat IgG treated control mice",30
same,Maximal disability score: Alertness,[1]; day 55 after immunization,2
same,Maximal disability score: Bladder function,[1]; day 55 after immunization,0
same,Maximal disability score: Eye movements,[1]; day 55 after immunization,1
same,Maximal disability score: Motor (grip)*,[1]; day 55 after immunization,12
same,Maximal disability score: Other signs (shine hairs and loose skin),[1]; day 55 after immunization,3
same,Maximal disability score: Sensory* Light touch,[1]; day 55 after immunization,8
same,Maximal disability score: Sensory* Pain,[1]; day 55 after immunization,8
same,Maximal disability score: Spontaneous mobility,[1]; day 55 after immunization,3
same,Maximal disability score: Tone*,[1]; day 55 after immunization,12
same,Maximal disability score: Tremor,[1]; day 55 after immunization,2
same,Maximal disability score: Vision (including pupillary reflex),[1]; day 55 after immunization,1
same,Total expanded disability scale,[1]; day 55 after immunization,53
same,Maximal disability score: Alertness,[1]; day 60 after immunization,2
same,Maximal disability score: Bladder function,[1]; day 60 after immunization,1
same,Maximal disability score: Eye movements,[1]; day 60 after immunization,1
same,Maximal disability score: Motor (grip)*,[1]; day 60 after immunization,12
same,Maximal disability score: Other signs (shine hairs and loose skin),[1]; day 60 after immunization,2
same,Maximal disability score: Sensory* Light touch,[1]; day 60 after immunization,8
same,Maximal disability score: Sensory* Pain,[1]; day 60 after immunization,8
same,Maximal disability score: Spontaneous mobility,[1]; day 60 after immunization,3
same,Maximal disability score: Tone*,[1]; day 60 after immunization,12
same,Maximal disability score: Tremor,[1]; day 60 after immunization,2
same,Maximal disability score: Vision (including pupillary reflex),[1]; day 60 after immunization,1
same,Total expanded disability scale,[1]; day 60 after immunization,53
same,Maximal disability score: Alertness,[1]; day 65 after immunization,1
same,Maximal disability score: Bladder function,[1]; day 65 after immunization,0
same,Maximal disability score: Eye movements,[1]; day 65 after immunization,0
same,Maximal disability score: Motor (grip)*,[1]; day 65 after immunization,4
same,Maximal disability score: Other signs (shine hairs and loose skin),[1]; day 65 after immunization,0
same,Maximal disability score: Sensory* Light touch,[1]; day 65 after immunization,0
same,Maximal disability score: Sensory* Pain,[1]; day 65 after immunization,0
same,Maximal disability score: Spontaneous mobility,[1]; day 65 after immunization,2
same,Maximal disability score: Tone*,[1]; day 65 after immunization,8
same,Maximal disability score: Tremor,[1]; day 65 after immunization,0
same,Maximal disability score: Vision (including pupillary reflex),[1]; day 65 after immunization,0
same,Total expanded disability scale,[1]; day 65 after immunization,15
same,Maximal disability score: Alertness,[1]; day 70 after immunization,1
same,Maximal disability score: Bladder function,[1]; day 70 after immunization,0
same,Maximal disability score: Eye movements,[1]; day 70 after immunization,1
same,Maximal disability score: Motor (grip)*,[1]; day 70 after immunization,4
same,Maximal disability score: Other signs (shine hairs and loose skin),[1]; day 70 after immunization,0
same,Maximal disability score: Sensory* Light touch,[1]; day 70 after immunization,0
same,Maximal disability score: Sensory* Pain,[1]; day 70 after immunization,0
same,Maximal disability score: Spontaneous mobility,[1]; day 70 after immunization,3
same,Maximal disability score: Tone*,[1]; day 70 after immunization,4
same,Maximal disability score: Tremor,[1]; day 70 after immunization,0
same,Maximal disability score: Vision (including pupillary reflex),[1]; day 70 after immunization,0
same,Total expanded disability scale,[1]; day 70 after immunization,13
same,Maximal disability score: Alertness,[1]; day 75 after immunization,1
same,Maximal disability score: Bladder function,[1]; day 75 after immunization,1
same,Maximal disability score: Eye movements,[1]; day 75 after immunization,0
same,Maximal disability score: Motor (grip)*,[1]; day 75 after immunization,8
same,Maximal disability score: Other signs (shine hairs and loose skin),[1]; day 75 after immunization,0
same,Maximal disability score: Sensory* Light touch,[1]; day 75 after immunization,4
same,Maximal disability score: Sensory* Pain,[1]; day 75 after immunization,8
same,Maximal disability score: Spontaneous mobility,[1]; day 75 after immunization,3
same,Maximal disability score: Tone*,[1]; day 75 after immunization,4
same,Maximal disability score: Tremor,[1]; day 75 after immunization,0
same,Maximal disability score: Vision (including pupillary reflex),[1]; day 75 after immunization,1
same,Total expanded disability scale,[1]; day 75 after immunization,30
same,Maximal disability score: Alertness,[1]; day 119 after immunization,1
same,Maximal disability score: Bladder function,[1]; day 119 after immunization,0
same,Maximal disability score: Eye movements,[1]; day 119 after immunization,1
same,Maximal disability score: Motor (grip)*,[1]; day 119 after immunization,4
same,Maximal disability score: Other signs (shine hairs and loose skin),[1]; day 119 after immunization,2
same,Maximal disability score: Sensory* Light touch,[1]; day 119 after immunization,4
same,Maximal disability score: Sensory* Pain,[1]; day 119 after immunization,4
same,Maximal disability score: Spontaneous mobility,[1]; day 119 after immunization,2
same,Maximal disability score: Tone*,[1]; day 119 after immunization,4
same,Maximal disability score: Tremor,[1]; day 119 after immunization,1
same,Maximal disability score: Vision (including pupillary reflex),[1]; day 119 after immunization,0
same,Total expanded disability scale,[1]; day 119 after immunization,23
same,Pathology status scale: Apoptosis,[2]; day 45,2
same,Pathology status scale: Oligodendrocytes**,[2]; day 45,2
same,Pathology status scale: Remyelination**,[2]; day 45,3
same,Pathology status scale: Axonal damage,[2]; day 45,2
same,Pathology status scale: Demyelination,[2]; day 45,2
same,Pathology status scale: Inflammation,[2]; day 45,3
same,Pathology status scale: Apoptosis,[2]; day 60,3
same,Pathology status scale: Oligodendrocytes**,[2]; day 60,3
same,Pathology status scale: Remyelination**,[2]; day 60,2
same,Pathology status scale: Axonal damage,[2]; day 60,3
same,Pathology status scale: Demyelination,[2]; day 60,3
same,Pathology status scale: Inflammation,[2]; day 60,3
same,Pathology status scale: Apoptosis,[2]; day 65,2
same,Pathology status scale: Oligodendrocytes**,[2]; day 65,2
same,Pathology status scale: Remyelination**,[2]; day 65,2
same,Pathology status scale: Axonal damage,[2]; day 65,1
same,Pathology status scale: Demyelination,[2]; day 65,2
same,Pathology status scale: Inflammation,[2]; day 65,2
same,Pathology status scale: Apoptosis,[2]; day 70,1
same,Pathology status scale: Oligodendrocytes**,[2]; day 70,1
same,Pathology status scale: Remyelination**,[2]; day 70,2
same,Pathology status scale: Axonal damage,[2]; day 70,1
same,Pathology status scale: Demyelination,[2]; day 70,1
same,Pathology status scale: Inflammation,[2]; day 70,2
same,Pathology status scale: Apoptosis,[2]; day 119,2
same,Pathology status scale: Oligodendrocytes**,[2]; day 119,2
same,Pathology status scale: Remyelination**,[2]; day 119,1
same,Pathology status scale: Axonal damage,[2]; day 119,2
same,Pathology status scale: Demyelination,[2]; day 119,2
same,Pathology status scale: Inflammation,[2]; day 119,1
same,Total scores After treatment (pathology status scale),[2]; sum over the six pathology parameters after treatment,46
same,"cumulative scores for inflammation, demyelination, remyelination, apoptosis, oligodendrocyte loss, and axonal damage following treatment",[2]; text statement of Table 2 totals,46
